In patent US20230321086A1, “METHODS AND MATERIALS FOR INHIBITING NICOTINAMIDE PHOSPHORIBOSYLTRANSFERASE ACTIVITY” (Universiy of Pittsburgh - Of the Commonwealth System of …, priority 2020, published 2023):

Tests used:
NAMPT = NAMPT (Homo sapiens, UniProt P43490); assay: Assay for in vitro NAMPT activity via NMN assessment; assay type: biochemical; conditions: read-out: A: NAMPT enzyme inhibitory activity, IC50
Protocol: The following were added to a well: 20 μL 2× test compound in Basic Buffer (0.02% BSA, 2 mM DTT, 12 mM MgCl2, 50 mM Tris pH7.5); 10 μL 8 μg/mL NAMPT, and 200 μM PRPP working solution (or PRPP working solution to background wells). 10 μL 100 μM NAM working solution was added to start the reaction. The plate was sealed and incubated for 45 minutes at 37° C. After incubation, 10 μL 20% acetophenone in DMSO, 10 μL 2N KOH, and 20 μL 88% formic acid were added. The plate was sealed and incubated for 30 minutes at 37° C. After incubation, fluorescence at Ex/Em 387/441 was read.
In each table header, A: NAMPT enzyme inhibitory activity, IC50 (μM); B: Cellular NAD inhibitory activity, IC50 (μM); and C: change in NAD levels in response to test compound, shown as % of NAD activity in the absence of test compound. […] A percentage of 100 percent would indicate no increase or decrease in NAD levels as compared to that measured for untreated control cells, while a percentage of 50 percent would indicate a decrease in NAD levels of 50 percent as compared to that measured for untreated control cells.

A431 cells = assay: Assay for total NADH and NAD+ measurements in cells; assay type: cell-based; conditions: Homo sapiens, A-431, read-out: B: Cellular NAD inhibitory activity, IC50
Procedure, shortened: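 Cells (2,000/well) treated with compounds overnight, washed with PBS containing 1 mM CaCl2 and MgCl2, lysed with 0.4% DTAB in phosphate buffer pH 8.0. Reaction mix added and fluorescence (Ex/Em 530/585) followed over 8 cycles every 92 seconds; NAD given as % of untreated control.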

NAMPT, sequence (P43490 whole entry, species assumed): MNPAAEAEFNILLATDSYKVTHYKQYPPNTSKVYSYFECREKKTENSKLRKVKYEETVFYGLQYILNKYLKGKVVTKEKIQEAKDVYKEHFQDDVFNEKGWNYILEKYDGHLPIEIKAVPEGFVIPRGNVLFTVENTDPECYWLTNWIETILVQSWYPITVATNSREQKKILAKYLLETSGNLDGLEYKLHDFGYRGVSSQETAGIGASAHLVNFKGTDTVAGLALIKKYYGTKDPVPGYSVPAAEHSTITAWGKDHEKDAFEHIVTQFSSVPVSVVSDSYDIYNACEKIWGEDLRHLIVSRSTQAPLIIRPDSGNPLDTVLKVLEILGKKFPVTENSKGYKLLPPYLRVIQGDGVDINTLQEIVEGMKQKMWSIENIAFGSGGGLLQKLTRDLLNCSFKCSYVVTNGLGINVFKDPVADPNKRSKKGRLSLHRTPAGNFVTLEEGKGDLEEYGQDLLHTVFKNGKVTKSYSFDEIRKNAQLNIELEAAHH

IC50 (NAMPT) [µM] | IC50 (A431 cells) [µM] | SMILES
< 1 | < 1 | O=C(NCc1cccnc1)c1ccc2nc(-c3ccccc3)c(-c3ccccc3)nc2c1 [BC18405]
< 1 | < 1 | O=C(NCc1cccnc1)Nc1cnc2nc(-c3ccc(F)cc3)c(-c3ccc(F)cc3)nc2c1 [BC20213]
< 1 | < 1 | O=C(Nc1cccnc1)Nc1ccc2nc(-c3ccc(F)cc3)c(-c3ccc(F)cc3)nc2c1 [BC20224]
< 1 | < 1 | O=C(NCc1ccc2nc(-c3ccc(F)cc3)c(-c3ccc(F)cc3)nc2c1)Nc1cccnc1 [BC20235]
≥ 25 | – | CS(=O)(=O)N1CCCC(NC(=O)NCc2ccc3nc(-c4ccc(F)cc4)c(-c4ccc(F)cc4)nc3c2)C1 (stereo not shown) [BC20253]
< 1 | < 1 | O=C(Nc1cccnc1)Nc1cnc2nc(-c3ccc(F)cc3)c(-c3ccc(F)cc3)nc2c1 [BC20254]
≥ 25 | – | O=C(Nc1cnc2nc(-c3ccc(F)cc3)c(-c3ccc(F)cc3)nc2c1)NC1CCCNC1 (stereo not shown) [BC20255]
1 to 25 | – | CS(=O)(=O)N1CCCC(NC(=O)Nc2cnc3nc(-c4ccc(F)cc4)c(-c4ccc(F)cc4)nc3c2)C1 (stereo not shown) [BC20256]
≥ 25 | – | CN1CCN(C(=O)c2ccc3nc(-c4cccc(NS(C)(=O)=O)c4)c(-c4cccc(NS(C)(=O)=O)c4)nc3c2)CC1 [BC20258]
≥ 25 | – | CN1CCN(C(=O)c2ccc3nc(-c4cccc(CNS(C)(=O)=O)c4)c(-c4cccc(CNS(C)(=O)=O)c4)nc3c2)CC1 [BC20259]
≥ 25 | – | C#CCNC(=O)c1ccc2nc(-c3cccc(CNS(C)(=O)=O)c3)c(-c3cccc(CNS(C)(=O)=O)c3)nc2c1 [BC20261]
≥ 25 | – | CN(C)CC(=O)NCc1cccc(-c2nc3cc(C(=O)N4CCN(C)CC4)ccc3nc2-c2ccc(F)cc2)c1 [BC20263]
≥ 25 | – | COCC(=O)NCc1cccc(-c2nc3cc(C(=O)N4CCN(C)CC4)ccc3nc2-c2ccc(F)cc2)c1 [BC20264]
< 1 | < 1 | O=C(NCCc1cccnc1)Nc1cnc2nc(-c3ccc(F)cc3)c(-c3ccc(F)cc3)nc2c1 [BC20268]
≥ 25 | – | C#CCNC(=O)c1ccc2nc(-c3cccc(CNC(C)=O)c3)c(-c3cccc(CNC(C)=O)c3)nc2c1 [BC20274]
≥ 25 | – | C#CCNC(=O)c1ccc2nc(-c3cccc(CNC(=O)COC)c3)c(-c3cccc(CNC(=O)COC)c3)nc2c1 [BC20275]
1 to 25 | – | O=C1N(Cc2cccnc2)CCN1c1ccc2nc(-c3ccc(F)cc3)c(-c3ccc(F)cc3)nc2c1 [BC20277]

IC50 (NAMPT) [µM] | IC50 (A431 cells) [µM] | SMILES
1 to 25 | – | O=C(Cc1cccnc1)NCc1ccc2nc(-c3ccc(F)cc3)c(-c3ccc(F)cc3)nc2c1 [BC20278]
≥ 25 | – | O=C(NC[C@H]1CCCNC1)c1ccc2nc(-c3ccc(F)cc3)c(-c3ccc(F)cc3)nc2c1 [BC20279]
≥ 25 | – | COCC(=O)N1CCC[C@H](CNC(=O)c2ccc3nc(-c4ccc(F)cc4)c(-c4ccc(F)cc4)nc3c2)C1 [BC20281]
≥ 25 | – | CCCC(=O)N1CCC[C@H](CNC(=O)c2ccc3nc(-c4ccc(F)cc4)c(-c4ccc(F)cc4)nc3c2)C1 [BC20283]
1 to 25 | – | CS(=O)(=O)N1CCC[C@H](CNC(=O)NCc2ccc3nc(-c4ccc(F)cc4)c(-c4ccc(F)cc4)nc3c2)C1 [BC20284]
≥ 25 | – | C#CCNC(=O)c1ccc2nc(-c3cccc(CNC(=O)CN(C)C)c3)c(-c3cccc(CNC(=O)CN(C)C)c3)nc2c1 [BC20289]
≥ 25 | – | O=C1N(Cc2cccnc2)CCN1c1cnc2nc(-c3ccc(F)cc3)c(-c3ccc(F)cc3)nc2c1 [BC20291]
≥ 25 | – | CC(C)CC(=O)N1CCC[C@H](CNC(=O)c2ccc3nc(-c4ccc(F)cc4)c(-c4ccc(F)cc4)nc3c2)C1 [BC20292]
≥ 25 | – | C#CCCC(=O)N1CCC[C@H](CNC(=O)c2ccc3nc(-c4ccc(F)cc4)c(-c4ccc(F)cc4)nc3c2)C1 [BC20295]
≥ 25 | – | COCCNC(=O)Nc1cnc2nc(-c3ccc(F)cc3)c(-c3ccc(F)cc3)nc2c1 [BC20298]
1 to 25 | – | CC(=O)N1CCCC(CNC(=O)NCc2ccc3nc(-c4ccc(F)cc4)c(-c4ccc(F)cc4)nc3c2)C1 (stereo not shown) [BC20301]
≥ 25 | – | Fc1ccc(-c2nc3cc4[nH]c(=S)n(CCc5cccnc5)c4nc3nc2-c2ccc(F)cc2)cc1 [BC20305]
≥ 25 | – | CC(=O)NCc1cccc(-c2nc3ccc(C(=O)N4CCN(C)CC4)cc3nc2-c2ccc(F)cc2)c1 [BC20306]
< 1 | < 1 | Fc1ccc(-c2nc3cc(NC(=S)NCCc4cccnc4)cnc3nc2-c2ccc(F)cc2)cc1 [BC20309]
< 1 | < 1 | O=C(NCCc1cccnc1)Nc1cnc2nc(-c3ccc(Cl)cc3)c(-c3ccc(Cl)cc3)nc2c1 [BC20311]
≥ 25 | – | CN(C)CCNC(=O)Nc1cnc2nc(-c3ccc(F)cc3)c(-c3ccc(F)cc3)nc2c1 [BC20312]
< 1 | < 1 | Nc1ccc(CNC(=O)Nc2cnc3nc(-c4ccc(F)cc4)c(-c4ccc(F)cc4)nc3c2)cn1 [BC20316]

Second part, the compound before the results:

SMILES | IC50 (NAMPT) [µM] | IC50 (A431 cells) [µM]
O=C(NCCc1cccnc1)c1cnc2nc(-c3ccc(F)cc3)c(-c3ccc(F)cc3)nc2c1 [BC20205] | < 1 | < 1
O=C(NCCc1cccnc1)Nc1ccc2nc(-c3ccc(F)cc3)c(-c3ccc(F)cc3)nc2c1 [BC20216] | < 1 | < 1
CN(C)Cc1cccc(-c2nc3ccc(C(=O)N4CCN(C)CC4)cc3nc2-c2cccc(CN(C)C)c2)c1 [BC20260] | ≥ 25 | –
CN1CCN(C(=O)c2ccc3nc(-c4ccc(F)cc4)c(-c4cccc(N(C)C)c4)nc3c2)CC1 [BC20262] | ≥ 25 | –
CN1CCN(C(=O)c2ccc3nc(-c4ccc(F)cc4)c(-c4cccc(CN5CCCC5)c4)nc3c2)CC1 [BC20265] | ≥ 25 | –
C#CCNC(=O)c1ccc2nc(-c3cccc(NC(=O)CN(C)C)c3)c(-c3ccc(F)cc3)nc2c1 [BC20266] | ≥ 25 | –
O=C(NCc1ccc2nc(-c3ccc(F)cc3)c(-c3ccc(F)cc3)nc2c1)c1cccnc1 [BC20267] | 1 to 25 | –
CN1CCCC(NC(=O)Nc2cnc3nc(-c4ccc(F)cc4)c(-c4ccc(F)cc4)nc3c2)C1 (stereo not shown) [BC20269] | ≥ 25 | –
CS(=O)(=O)N1CCC[C@H](CNC(=O)c2ccc3nc(-c4ccc(F)cc4)c(-c4ccc(F)cc4)nc3c2)C1 [BC20270] | ≥ 25 | –
CC(=O)N1CCC[C@H](CNC(=O)c2ccc3nc(-c4ccc(F)cc4)c(-c4ccc(F)cc4)nc3c2)C1 [BC20271] | ≥ 25 | –
CC(=O)NCc1cccc(-c2nc3ccc(C(=O)N4CCN(C)CC4)cc3nc2-c2cccc(CNC(C)=O)c2)c1 [BC20272] | ≥ 25 | –
COCC(=O)NCc1cccc(-c2nc3ccc(C(=O)N4CCN(C)CC4)cc3nc2-c2cccc(CNC(=O)COC)c2)c1 [BC20273] | ≥ 25 | –
C#CCNC(=O)c1ccc2nc(-c3ccc(F)cc3)c(-c3cccc(CNC(=O)COC)c3)nc2c1 [BC20276] | ≥ 25 | –
CN1CCC[C@H](CNC(=O)c2ccc3nc(-c4ccc(F)cc4)c(-c4ccc(F)cc4)nc3c2)C1 [BC20280] | 1 to 25 | –
COCCNC(=O)N1CCC[C@H](CNC(=O)c2ccc3nc(-c4ccc(F)cc4)c(-c4ccc(F)cc4)nc3c2)C1 [BC20282] | ≥ 25 | –
O=C(NCc1ccc2nc(-c3ccc(F)cc3)c(-c3ccc(F)cc3)nc2c1)NC[C@H]1CCCNC1 [BC20285] | 1 to 25 | –
CN(C)CC(=O)Nc1cccc(-c2nc3ccc(C(=O)N4CCN(C)CC4)cc3nc2-c2cccc(NC(=O)CN(C)C)c2)c1 [BC20286] | ≥ 25 | –
C#CCNC(=O)c1ccc2nc(-c3cccc(NS(C)(=O)=O)c3)c(-c3cccc(NS(C)(=O)=O)c3)nc2c1 [BC20288] | ≥ 25 | –
CN1CCN(C(=O)c2ccc3nc(-c4cccc(NS(C)(=O)=O)c4)c(-c4ccc(F)cc4)nc3c2)CC1 [BC20290] | ≥ 25 | –
CCCS(=O)(=O)N1CCCC(NC(=O)Nc2cnc3nc(-c4ccc(F)cc4)c(-c4ccc(F)cc4)nc3c2)C1 (stereo not shown) [BC20293] | ≥ 25 | –
CN1CCC[C@H](CNC(=O)NCc2ccc3nc(-c4ccc(F)cc4)c(-c4ccc(F)cc4)nc3c2)C1 [BC20294] | ≥ 25 | –
COCC(=O)NCc1cccc(-c2nc3ccc(C(=O)N4CCN(C)CC4)cc3nc2-c2ccc(F)cc2)c1 [BC20296] | ≥ 25 | –
C#CCNC(=O)Nc1cnc2nc(-c3ccc(F)cc3)c(-c3ccc(F)cc3)nc2c1 [BC20297] | ≥ 25 | –
CC(=O)N1CCC[C@H](CNC(=O)Nc2ccc3nc(-c4ccc(F)cc4)c(-c4ccc(F)cc4)nc3c2)C1 [BC20299] | 1 to 25 | –
CS(=O)(=O)N1CCCC(CNC(=O)Nc2ccc3nc(-c4ccc(F)cc4)c(-c4ccc(F)cc4)nc3c2)C1 (stereo not shown) [BC20300] | 1 to 25 | –
CN(C)Cc1cccc(-c2nc3ccc(C(=O)N4CCN(C)CC4)cc3nc2-c2ccc(F)cc2)c1 [BC20307] | ≥ 25 | –
O=C(NCCc1cccnc1)Nc1ccc2nc(-c3ccc(F)cc3)c(-c3ccc(F)cc3)nc2n1 [BC20310] | < 1 | –
O=C(NCCc1cccnn1)Nc1cnc2nc(-c3ccc(F)cc3)c(-c3ccc(F)cc3)nc2c1 [BC20314] | < 1 | < 1
O=C(NCCc1cncs1)Nc1cnc2nc(-c3ccc(F)cc3)c(-c3ccc(F)cc3)nc2c1 [BC20315] | < 1 | < 1
